# Measured values taken from PubChem BioAssay AID651630 (Sanford-Burnham Center for Chemical Genomics, 2012).
# The source made the active and inactive calls.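 The calls were made as follows: active = lipid-stain IC50 at or below a set limit, with nuclear-stain toxicity IC50 at least five times higher; inactive = the rest.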
# Key:
# DAPI = experiment: triacylglycerol accumulation inhibitor potency, dose response, cell-based, panel, Nile Red and DAPI fluorescence, H9c2 (AID 651630); settings: H9c2 cells, DAPI nuclear fluorescence (cytotoxicity counter-readout), oleic acid;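 also: cells exposed to compound overnight before fixation and staining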
# TAG = experiment: as above; settings: H9c2 cells, Nile Red TAG fluorescence, oleic acid
SMILES,IC50 (TAG; run 1),IC50 (TAG; run 2),IC50 (TAG; mean of runs),IC50 cytotoxicity (DAPI nuclear signal decrease) (DAPI; run 1),IC50 cytotoxicity (DAPI nuclear signal decrease) (DAPI; run 2),IC50 cytotoxicity (DAPI nuclear signal decrease) (DAPI; mean of runs)
COc1ccc(NC(=S)N(CCCN2CCCC2)Cc2cccn2Cc2ccc(Cl)cc2)cc1Cl,16.8 µM,> 25 µM,,24.1 µM,> 25 µM,
COc1cc(OC)nc(Nc2nc(C(N)Cc3ccc(Cl)cc3)cs2)n1 (centres undefined),> 25 µM,23.4 µM,,> 25 µM,> 25 µM,> 25 µM (inactive)
COc1ccccc1NC1=NC(c2ccc(Cl)cc2)N=C(N)N1 (centres undefined),> 25 µM,> 25 µM,> 25 µM (inactive),> 25 µM,> 25 µM,> 25 µM (inactive)
COc1ccccc1Nc1nnc(SCC(=O)Nc2nc(-c3ccc(F)cc3)cs2)s1,> 25 µM,> 25 µM,> 25 µM (inactive),> 25 µM,> 25 µM,> 25 µM (inactive)
CC(=O)c1ccc(-c2cnc3c(NC=O)cc(-c4ccc(C(=O)NC5CC5)cc4)cn23)cc1,> 25 µM,> 25 µM,> 25 µM (inactive),> 25 µM,> 25 µM,> 25 µM (inactive)
COc1ccc(CC(=O)Nc2ccc(-c3nnc(-c4ccc(C)cc4)o3)cc2)cc1,> 25 µM,> 25 µM,> 25 µM (inactive),> 25 µM,> 25 µM,> 25 µM (inactive)
O=C(CCC(=O)N1CCOc2ccc(Cl)cc21)NCCCN1CCC(Cc2ccccc2)CC1,> 25 µM,9.91 µM,,16 µM,14.2 µM,15.1 µM (inactive)
COc1ccc(CNC(=O)Nc2nc(C(N)Cc3ccc(Cl)cc3)cs2)cc1 (centres undefined),> 25 µM,> 25 µM,> 25 µM (inactive),19.5 µM,23.9 µM,21.7 µM (inactive)
COc1ccc(CC(N)c2csc(NC(=O)Nc3ccccc3-c3ccccc3)n2)cc1 (centres undefined),> 25 µM,15.5 µM,,19.3 µM,15.9 µM,17.6 µM (inactive)
CCOc1ccc(CCNC(=O)CN(C)S(=O)(=O)c2cccc3nsnc23)cc1OCC,14.2 µM,20.8 µM,17.5 µM (inactive),> 25 µM,> 25 µM,> 25 µM (inactive)
COc1ccc(NC(=O)Cn2c(=O)n(-c3ccc(CC(=O)NCc4ccco4)cc3)c(=O)c3ccccc32)cc1,24.7 µM,> 25 µM,,> 25 µM,> 25 µM,> 25 µM (inactive)
Cc1cccc(NC(=O)c2ccc([N+](=O)[O-])o2)c1C,19.8 µM,> 25 µM,,9.7 µM,10.9 µM,10.3 µM (inactive)
O=C(c1cnn2c1NC(c1ccc(Br)cc1)CC2C(F)(F)F)N1CCN(C23CC4CC(CC(C4)C2)C3)CC1 (centres undefined),> 25 µM,> 25 µM,> 25 µM (inactive),> 25 µM,> 25 µM,> 25 µM (inactive)
COc1cc(C2=NOC(C(=O)NCc3cccs3)C2)cc(OC)c1OC (centres undefined),17.3 µM,10.1 µM,13.7 µM,> 25 µM,> 25 µM,> 25 µM (inactive)
COc1ccc(-c2sc3ccc(N4CCOCC4)cc3c2C#CCCO)cc1,> 25 µM,> 25 µM,> 25 µM (inactive),> 25 µM,> 25 µM,> 25 µM (inactive)
CCOc1ccc(NC(=O)c2ccc(NC(=O)CSc3nc4ccccc4c(=O)[nH]3)cc2)cc1,24.6 µM,> 25 µM,,> 25 µM,> 25 µM,> 25 µM (inactive)

# These reach a lower IC50 (TAG; run 1). Values come first.
IC50 (TAG; run 1),IC50 (TAG; run 2),IC50 (TAG; mean of runs),SMILES,IC50 cytotoxicity (DAPI nuclear signal decrease) (DAPI; run 1),IC50 cytotoxicity (DAPI nuclear signal decrease) (DAPI; run 2),IC50 cytotoxicity (DAPI nuclear signal decrease) (DAPI; mean of runs)
2.94 µM,2.52 µM,2.73 µM,COc1cccc(NC(=O)N2CCc3nc(Nc4ccc(C(C)C)cc4)ncc3C2)c1,> 25 µM,> 25 µM,
4.99 µM,> 25 µM,,COc1ccc2[nH]c3c(c2c1)CCN1C(=O)C(CC(=O)NCC24CC5CC(CC(C5)C2)C4)C[C@H](C(=O)N2CCOCC2)[C@@]31CCC1CCCC1 (some centres undefined),> 25 µM,> 25 µM,> 25 µM (inactive)
10 µM,11 µM,10.5 µM,c1ccc(-c2nc(SCc3nc4ccccc4[nH]3)c3oc4ccccc4c3n2)cc1,> 25 µM,> 25 µM,> 25 µM (inactive)
7.24 µM,11.2 µM,9.22 µM,Cc1cc(NC(=O)CSc2nc3ccccc3c(=O)n2C2CCCC2)no1,> 25 µM,> 25 µM,> 25 µM (inactive)
12.7 µM,12.9 µM,12.8 µM,c1ccc(OCCNc2nc(NCC3CC3)nc3cc(-c4ccccc4)sc23)cc1,> 25 µM,> 25 µM,> 25 µM (inactive)
8.74 µM,9.95 µM,9.34 µM,Oc1ccc(C[C@H]2CNC(=S)N2CC2CCCN2C[C@H](Cc2ccc(O)cc2)N2C[C@H](Cc3ccc(O)cc3)N(CC3CCCCC3)C2=S)cc1 (some centres undefined),> 25 µM,> 25 µM,> 25 µM (inactive)
11.1 µM,9.95 µM,10.5 µM,Cc1ccc2nc(NC(=O)CN(C)S(=O)(=O)c3cccc4nsnc34)sc2c1,> 25 µM,> 25 µM,> 25 µM (inactive)
8.17 µM,5.88 µM,7.02 µM,CCC(C)(C)NC(=O)C(c1ccc(OC)cc1)N(CC1CCCO1)C(=O)CCC(=O)Nc1cc(C)on1 (centres undefined),> 25 µM,> 25 µM,> 25 µM (inactive)
1.55 µM,2.15 µM,1.85 µM,Brc1ccc(-c2csc(NNC3=NCCCCC3)n2)cc1,21.6 µM,> 25 µM,
